Results taken from PubChem BioAssay (NCI).
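Five compound concentrations were applied to cells in 96-well plates for 48 hours; endpoints were derived by simple linear interpolation of the resulting dose-response curve. TGI denotes the concentration required for complete inhibition of growth.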

What was measured:
Test in all cases: DTP human tumour cell line panel, 48 h
XF 498 CNS = tested on: XF 498 CNS
DLD-1 colon = tested on: DLD-1 colon
RXF-631 renal = tested on: RXF-631 renal

Row | SMILES | TGI (XF 498 CNS) | TGI (DLD-1 colon) | TGI (RXF-631 renal)
1 | COc1ccc2c(c1)c(=O)c1c(NCCCN(C)C)ccc3ncn2c31 | 18.9 µM | 17.8 µM | 
2 | COc1ccc2c(c1)C=C(C(C)(C)C)NS2(=O)=O |  | > 100 µM | > 100 µM
3 | CC(c1ccccc1)C(O)S(=O)(=O)O (stereo unspecified) | > 100 µM |  | > 100 µM
